In ChEMBL document CHEMBL3885881, “DrugMatrix”:

Species: Rattus norvegicus
Assay: DrugMatrix - Regimen: Daily Repeat
Type: toxicity, organism-based, Sprague-Dawley
Design: regimen Daily Repeat, gender Male, age 6-8 weeks
Details: in vivo, po, route oral GAVAGE, vehicle .5 % CMC; for ABSOLUTE BASOPHIL / ABSOLUTE EOSINOPHIL / ABSOLUTE LYMPHOCYTE / ABSOLUTE MONOCYTE / ABSOLUTE SEGMENTED NEUTROPHIL / BASOPHIL / EOSINOPHIL / ERYTHROCYTE COUNT / HEMATOCRIT / HEMOGLOBIN / LEUKOCYTE COUNT / LYMPHOCYTE / MEAN CORPUSCULAR HEMOGLOBIN / MEAN CORPUSCULAR HEMOGLOBIN CONCENTRATION / MEAN CORPUSCULAR VOLUME / MONOCYTE / NEUTROPHIL / NUCLEATED RED BLOOD CELLS / PLATELET COUNT: tissue Blood; for ALANINE AMINOTRANSFERASE / ALBUMIN / ALKALINE PHOSPHATASE / ASPARTATE AMINOTRANSFERASE / BLOOD UREA NITROGEN / CARBON DIOXIDE / CHLORIDE / CHOLESTEROL / CREATINE PHOSPHOKINASE / CREATININE / GLUCOSE / LACTATE DEHYDROGENASE / LIPASE / PHOSPHORUS / POTASSIUM / SODIUM / TOTAL BILIRUBIN / TOTAL PROTEIN / URIC ACID: tissue Plasma
[1] = 385.5 mg/kg, 120 h, dose level Low, time 5 day
[2] = 3855 mg/kg, 72 h, dose level High, time 3 day
[3] = 3855 mg/kg, 120 h, dose level High, time 5 day

For `Cn1c(=O)c2c(ncn2CC(O)CO)n(C)c1=O` (centres undefined) [DYPHYLLINE], the “ABSOLUTE BASOPHIL” value [1] was 0 CELLS/uL, the “ABSOLUTE EOSINOPHIL” value [1] was 0 CELLS/uL and the “ABSOLUTE LYMPHOCYTE” value [1] was 14849.33 CELLS/uL. For the same compound, the “ABSOLUTE MONOCYTE” value [1] was 268.33 CELLS/uL, the “ABSOLUTE SEGMENTED NEUTROPHIL” value [1] was 1249 CELLS/uL and the BASOPHIL [1] was 0%. The EOSINOPHIL [1] was 0%, the “ERYTHROCYTE COUNT” value [1] was 5.2 x10E6/uL and the HEMATOCRIT [1] was 34.47%. The HEMOGLOBIN [1] was 13.7 G/DL, the “LEUKOCYTE COUNT” value [1] was 16.37 x10E3/uL and the LYMPHOCYTE [1] was 90.67%. For the same compound, the “MEAN CORPUSCULAR HEMOGLOBIN” value [1] was 26.37 pg, the “MEAN CORPUSCULAR HEMOGLOBIN CONCENTRATION” value [1] was 39.77 G/DL and the “MEAN CORPUSCULAR VOLUME” value [1] was 66.3 fL. For the same compound, the MONOCYTE [1] was 1.67%, the NEUTROPHIL [1] was 7.67% and the “NUCLEATED RED BLOOD CELLS” value [1] was 0.33 /100WBC. The “PLATELET COUNT” value [1] was 1326 x10E3/uL, the “ALANINE AMINOTRANSFERASE” value [1] was 46.67 u/L and the ALBUMIN [1] was 4.3 G/DL. For the same compound, the “ALKALINE PHOSPHATASE” value [1] was 287 u/L, the “ASPARTATE AMINOTRANSFERASE” value [1] was 70.67 u/L and the “BLOOD UREA NITROGEN” value [1] was 18.67 mg/dL. For the same compound, the “CARBON DIOXIDE” value [1] was 25.33 mmol/L, the CHLORIDE [1] was 102.67 MEQ/L and the CHOLESTEROL [1] was 75.33 mg/dL. The “CREATINE PHOSPHOKINASE” value [1] was 172.67 u/L, the CREATININE [1] was 0.18 mg/dL and the GLUCOSE [1] was 155 mg/dL. The “LACTATE DEHYDROGENASE” value [1] was 103.33 u/L, the LIPASE [1] was 10 u/L and the PHOSPHORUS [1] was 13.33 mg/dL. The POTASSIUM [1] was 6.61 MEQ/L, the SODIUM [1] was 146.27 MEQ/L and the “TOTAL BILIRUBIN” value [1] was 0.2 mg/dL. The “TOTAL PROTEIN” value [1] was 5.93 G/DL, the “URIC ACID” value [1] was 1.33 mg/dL and the “ABSOLUTE BASOPHIL” value [2] was 0 CELLS/uL. For the same compound, the “ABSOLUTE EOSINOPHIL” value [2] was 0 CELLS/uL, the “ABSOLUTE LYMPHOCYTE” value [2] was 16214.67 CELLS/uL and the “ABSOLUTE MONOCYTE” value [2] was 399.33 CELLS/uL. For the same compound, the “ABSOLUTE SEGMENTED NEUTROPHIL” value [2] was 2086 CELLS/uL, the BASOPHIL [2] was 0% and the EOSINOPHIL [2] was 0%. The “ERYTHROCYTE COUNT” value [2] was 5.33 x10E6/uL, the HEMATOCRIT [2] was 33.37% and the HEMOGLOBIN [2] was 13.57 G/DL. For the same compound, the “LEUKOCYTE COUNT” value [2] was 18.7 x10E3/uL, the LYMPHOCYTE [2] was 87% and the “MEAN CORPUSCULAR HEMOGLOBIN” value [2] was 25.5 pg. For the same compound, the “MEAN CORPUSCULAR HEMOGLOBIN CONCENTRATION” value [2] was 40.67 G/DL, the “MEAN CORPUSCULAR VOLUME” value [2] was 62.63 fL and the MONOCYTE [2] was 2%. The NEUTROPHIL [2] was 11%, the “NUCLEATED RED BLOOD CELLS” value [2] was 0 /100WBC and the “PLATELET COUNT” value [2] was 1235.67 x10E3/uL. For the same compound, the “ALANINE AMINOTRANSFERASE” value [2] was 63.67 u/L, the ALBUMIN [2] was 4.37 G/DL and the “ALKALINE PHOSPHATASE” value [2] was 376 u/L. For the same compound, the “ASPARTATE AMINOTRANSFERASE” value [2] was 102 u/L, the “BLOOD UREA NITROGEN” value [2] was 14 mg/dL and the “CARBON DIOXIDE” value [2] was 25.67 mmol/L. For the same compound, the CHLORIDE [2] was 103.33 MEQ/L, the CHOLESTEROL [2] was 72 mg/dL and the “CREATINE PHOSPHOKINASE” value [2] was 224.33 u/L. The CREATININE [2] was 0.18 mg/dL, the GLUCOSE [2] was 169.33 mg/dL and the “LACTATE DEHYDROGENASE” value [2] was 157.67 u/L. It also gave an LIPASE [2] of 10 u/L, a PHOSPHORUS [2] of 11.3 mg/dL and a POTASSIUM [2] of 6.13 MEQ/L. The SODIUM [2] was 145.4 MEQ/L, the “TOTAL BILIRUBIN” value [2] was 0.17 mg/dL and the “TOTAL PROTEIN” value [2] was 5.77 G/DL. The “URIC ACID” value [2] was 1.27 mg/dL, the “ABSOLUTE BASOPHIL” value [3] was 0 CELLS/uL and the “ABSOLUTE EOSINOPHIL” value [3] was 169.33 CELLS/uL. The “ABSOLUTE LYMPHOCYTE” value [3] was 15268 CELLS/uL, the “ABSOLUTE MONOCYTE” value [3] was 115.33 CELLS/uL and the “ABSOLUTE SEGMENTED NEUTROPHIL” value [3] was 1780.67 CELLS/uL. For the same compound, the BASOPHIL [3] was 0%, the EOSINOPHIL [3] was 1% and the “ERYTHROCYTE COUNT” value [3] was 5.34 x10E6/uL. For the same compound, the HEMATOCRIT [3] was 34.57%, the HEMOGLOBIN [3] was 13.7 G/DL and the “LEUKOCYTE COUNT” value [3] was 17.33 x10E3/uL. For the same compound, the LYMPHOCYTE [3] was 88%, the “MEAN CORPUSCULAR HEMOGLOBIN” value [3] was 25.67 pg and the “MEAN CORPUSCULAR HEMOGLOBIN CONCENTRATION” value [3] was 39.63 G/DL. The “MEAN CORPUSCULAR VOLUME” value [3] was 64.77 fL, the MONOCYTE [3] was 0.67% and the NEUTROPHIL [3] was 10.33%. For the same compound, the “NUCLEATED RED BLOOD CELLS” value [3] was 0.33 /100WBC, the “PLATELET COUNT” value [3] was 1356 x10E3/uL and the “ALANINE AMINOTRANSFERASE” value [3] was 67.33 u/L. For the same compound, the ALBUMIN [3] was 4.23 G/DL, the “ALKALINE PHOSPHATASE” value [3] was 246 u/L and the “ASPARTATE AMINOTRANSFERASE” value [3] was 85.67 u/L. For the same compound, the “BLOOD UREA NITROGEN” value [3] was 17 mg/dL, the “CARBON DIOXIDE” value [3] was 26.33 mmol/L and the CHLORIDE [3] was 102.33 MEQ/L. The CHOLESTEROL [3] was 58.67 mg/dL, the “CREATINE PHOSPHOKINASE” value [3] was 184.33 u/L and the CREATININE [3] was 0.16 mg/dL. For the same compound, the GLUCOSE [3] was 150.67 mg/dL, the “LACTATE DEHYDROGENASE” value [3] was 98.67 u/L and the LIPASE [3] was 10 u/L. For the same compound, the PHOSPHORUS [3] was 11.47 mg/dL, the POTASSIUM [3] was 6.42 MEQ/L and the SODIUM [3] was 144.77 MEQ/L. For the same compound, the “TOTAL BILIRUBIN” value [3] was 0.2 mg/dL, the “TOTAL PROTEIN” value [3] was 5.77 G/DL and the “URIC ACID” value [3] was 1 mg/dL.
